Consider two compounds from patent US11589584B2, “Synergistic combination of 1,3-bis(hydroxymethyl)-5,5-dimethylimidazolidine-2,4-dione with glyoxal” (MC (US) 3 LLC, priority 2018, dated 2023).

Each structure is given as a SMILES string.

The test concerns Pseudomonas aeruginosa (ATCC 8739) and Escherichia coli (ATCC 10145) mixed microorganism culture. In words: Synergy in the planktonic phase: 48 h biocide challenge, regrowth read by turbidity in recovery media. Type of test: cell-based. As to conditions: P. aeruginosa/E. coli mixed inoculum, phosphate buffer pH 7.3, 30° C., 48 hour challenge. The method, then:
[…] cultures were separately prepared from glycerol stocks. First they were streak plated and validated with a microscope. Single colonies were picked and used to inoculate 200 mL shake flasks that were grown statically overnight at 30° C. (30 grams/L Tryptic Soy Broth) to produce the initial inoculum of mixed microorganism culture. A deep-well 96 well challenge plate (2 mL maximum well volume) was prepared using 900 μL/well phosphate buffer at pH 7.3, (0.0027M potassium chloride, 0.137 M sodium chloride). Inoculation took place at the start of the experiments (with a 100 μL combined inoculum, adding to the 900 μL buffer to total 1 mL/well). […]
The inoculated assay block was challenged at 30° C. for 48 hours. […] This was done in triplicate for each point (the triplicate is already present in the biocide block viz. each point is truly determined in triplicate). […]
The recovery plates were subsequently read (checked for microbial growth) at 72 hours after addition of the culture, to recovery media. Ranking of biocidal efficacy was done by recording the development of turbidity within each well (determined by visual inspection). […] Ranking was done per average value of three data points determined per experiment. (Recorded in log regrowth).
Synergy Ratio Determined Using the Following Formulae. […]

For the compound `CC1(C)C(=O)N(CO)C(=O)N1CO` [DMDMH, 1,3-Bis(hydroxymethyl)-5,5-dimethylimidazolidine-2,4-dione], the “DMDMH standalone 48 h pass” value (biocide used alone (QA)) came to 420 ppm.

With `O=CC=O` [Glyoxal, oxaldehyde], where the note is “used alone (QB)”, the “Glyoxal standalone 48 h pass” value is listed as 1800 ppm.
